What all share (format): cell-based
Experiment [1] concerns MDA-A1 cells. Kind of experiment: Inhibition of proliferation of MDA-A1 cells by tomaymycin dimers (14C-thymidine incorporation). The settings on record: MDA-A1, 3 days culture, 14C-thymidine incorporation at 96 h; read-out: Inhibition of proliferation (14C-thymidine pulse at 96 h) IC50 MDA-A1. As to the method: (§1) Evaluation of the Inhibition of Proliferation of the Cell Lines MDA-MB-231, MDA-A1 and HCT116 with the Compounds of Formula (IA) with RCG1=—SZa (Za=SMe) or RCG1=—C(═O)ZbRb (ZbRb=OMe)
(§2) MDA-MB-231, MDA-A1 or HCT116 cells in their exponential growth phase were trypsinized and resuspended in their respective culture medium (DMEM/F12 Gibco #21331, 10% FCS Gibco #10500-056, […] Glutamine Gibco #25030 for the MDA cells; DMEM Gibco #11960, 10% FCS Gibco #10500-056, 2 mM Glutamine Gibco #25030 for the HCT116 cells). The cell suspension was seeded in Cytostar 96-well culture plates (GE Healthcare Europe, #RPNQ0163) in the complete culture medium containing serum to a density of 5000 cells/well (MDA-MB-231, MDA-A1, HCT116). After incubation for 4 hours, successive dilutions of the tomaymycin dimers were added to the wells in triplicate for each concentration. The cells were cultured for 3 days at 37° C. under an atmosphere of 5% CO2 in the presence of the cytotoxic agents. On the fourth day, 10 μl of a solution of ^14C-thymidine (0.1 μCi/well, Perkin Elmer #NEC56825000) were added to each well. The incorporation of ^14C-thymidine was measured 96 hours after the start of the experiment with a Microbeta radioactivity counter (Perkin Elmer). The data are expressed in the form of a percentage of survival by determining the ratio between the Count obtained with the cells treated with the cytotoxic agents and that obtained with the cells of the control wells (treated with the culture medium alone).

Experiment [2] deals with HCT116 cells. The experiment in a line: Inhibition of proliferation of HCT116 cells by tomaymycin dimers (14C-thymidine incorporation). To be noted: Homo sapiens, HCT-116; HCT116, 3 days culture, 14C-thymidine incorporation at 96 h; read-out: Inhibition of proliferation (14C-thymidine pulse at 96 h) IC50 HCT116. As to the method:
as §1, §2
A general note: Uptake of a labelled nucleoside into DNA is a usual measure of proliferation.

Experiment [3] deals with MDA-MB-231 cells. The experiment in a line: Inhibition of proliferation of MDA-MB-231 cells by tomaymycin dimers (14C-thymidine incorporation). The settings on record: Homo sapiens, MDA-MB231, 3 days culture, 14C-thymidine incorporation at 96 h, read-out: Inhibition of proliferation (14C-thymidine pulse at 96 h) IC50 MDA-MB231. As to the method:
as §1, §2

Consider `C/C=C1\C[C@H]2C=Nc3cc(OCc4cc(OCCN(CCOCCOCCOC)CC(C)(C)SSC)cc(COc5cc6c(cc5OC)C(=O)N5C/C(=C/C)C[C@H]5C=N6)n4)c(OC)cc3C(=O)N2C1`, for which the IC50 was found to be 16.3 nM in experiment [1], 0.061 nM in experiment [2] and 0.128 nM in experiment [3].

Consider `C/C=C1\C[C@H]2C=Nc3cc(OCc4cc(OCCN(CCCC(=O)OCC)CCOCCOCCOC)cc(COc5cc6c(cc5OC)C(=O)N5C/C(=C/C)C[C@H]5C=N6)n4)c(OC)cc3C(=O)N2C1`, for which the IC50 in experiment [1] stood at 3.46 nM; in experiment [2], 0.018 nM; in experiment [3], 0.041 nM.

Turning to `C/C=C1\C[C@H]2C=Nc3cc(OCc4cc(OCCN(CCOCCOCCOC)CCC(=O)OC)cc(COc5cc6c(cc5OC)C(=O)N5C/C(=C/C)C[C@H]5C=N6)n4)c(OC)cc3C(=O)N2C1`, the IC50 in experiment [1] was found to be 17.8 nM; in experiment [2], 0.235 nM; in experiment [3], 0.384 nM.

For `C/C=C1\C[C@H]2C=Nc3cc(OCc4cc(OCCN(CCOCCOCCN5CCOCC5)CC(C)(C)SSC)cc(COc5cc6c(cc5OC)C(=O)N5C/C(=C/C)C[C@H]5C=N6)n4)c(OC)cc3C(=O)N2C1`, the IC50 in experiment [1] came to 26.5 nM; in experiment [2] it was 0.048 nM; in experiment [3], 0.081 nM.

As for `C/C=C1\C[C@H]2C=Nc3cc(OCc4cc(OCCN(CCCC(=O)OCC)C(=O)CCOCCOCCOCCOC)cc(COc5cc6c(cc5OC)C(=O)N5C/C(=C/C)C[C@H]5C=N6)n4)c(OC)cc3C(=O)N2C1`, the IC50 in experiment [1] is > 50 nM; in experiment [2] it was 4.98 nM; in experiment [3], 5.67 nM.

The values are drawn from patent publication US9056914B2, “Anticancer derivatives, preparation thereof and therapeutic use thereof” (priority 2010, dated 2015).
